Measured values: patent publication US8088398B2, “Pharmaceutical compositions comprising fesoterodine” (UCB Pharma GmbH, priority 2006, dated 2012)

Assays:
[1] = tested on: healthy male and female human subjects; test: Electrocardiographic effects (QT) of Fesoterodine formulations; type: in vivo; details: for QTc outlier analyses vs placebo: three days of treatment
Method: Fesoterodine formulations were administered orally to steady state at dosages of 4 mg and 28 mg per day to healthy male and female human subjects and the effect of such administration on QT values was determined.
The Fesoterodine 4 mg formulation was as follows. Higher dosage levels were obtained by administering multiple 4 mg formulations.
Steady state was determined by pharmacokinetic analysis of the Active Metabolite. Assay sensitivity was shown by a significant increase from baseline in QTcF and QTcI after multiple doses of moxifloxacin. The mean time-averaged QTcF increased by 8.6 ms after three days of treatment with moxifloxacin.
The study design was double-blind, single-site, randomized, placebo- and positive controlled, parallel. Two hundred and fifty-six male and female subjects were assigned to one of the following four treatment groups (N=64 each; at least 50% female): • Fesoterodine 4 mg.day • Fesoterodine 28 mg/day • Moxifloxacin 400 mg/day • Placebo
Subjects were administered 3 days of one of the above four treatments. Three 12-lead ECGs were downloaded from an H-12 flash card (data carrier) at each of the following time points on Days −1, 1, and 3: 1, 2, 3, 4, 6, 8, 10, 12, 14, 16, 18, and 23.5 hours. Plasma samples for the determination of Active Metabolite concentration (and the concentration of further metabolites) were drawn on Day 1 and Day 3 predose and at 1, 2, 3, 4, 6, 8, 12, and 23.5 hours postdose.

[2] = Degradation of Fesoterodine during tablet production and storage; type: physicochemical
Method: Granulates of Fesoterodine with various sugars and sugar alcohols were produced as described in Example 1. These granulates were then used to produce 4 mg tablets according to Example 2.1 and with the composition given as “Example C” in Table 1, as well as wherein the xylitol was substituted with mannitol, maltitol, sorbitol, or lactose.

[3] = Storage in open vials at 40° C. and 75% r.H. (stability, HPLC); type: physicochemical
Method: Fesoterodine hydrogen fumarate, a granulate containing Fesoterodine hydrogen fumarate and xylitol in a weight-ratio of 10:90, as well as a composition comprising Fesoterodine hydrogen fumarate and xylitol were stored in open vials (25 ml brown glass bottles) for up to 12 weeks at 40° C. and 75% r.H. The results are shown in Table 4 below.
The degradation of Fesoterodine was measured by HPLC. The following conditions were used to measure degradation products in the stability testing of Fesoterodine hydrogen fumarate: • Column: Polaris C18-Ether, 3 μm, 250 mm×4.6 mm • Eluent A: Water/methanesulfonic acid 1000:0.5 (v/v) • Eluent B: Acetonitrile/methanesulfonic acid 1000:0.5 (v/v) • Typical gradient profile:
• Column temperature: 35° C. • Flow rate: 1.2 mL/min • Detection wavelength: 220 nm • Injection volume: 20 μL
The retention time of the Active Metabolite was about 4.1 min (rrt=0.50); response factor: 1.4.
Evaluation of the HPLC results was by the area percent method.
A comparison of the observed average purity of a Fesoterodine-containing granulate and a corresponding composition as compared to pure Fesoterodine after open storage under stress conditions is set out in Table 4, wherein values are indicated in % of Fesoterodine hydrogen fumarate remaining at various times.

[4] = Stability of blends of Fesoterodine with sugar alcohols / lactose; type: physicochemical
Method: Blends of Fesoterodine hydrogen fumarate with xylitol, sorbitol, mannitol and maltitol were stored for 6 weeks and 3 months in closed vials at 25° C. and 60% r.H., in closed vials at 40° C. and 75% r.H., or in open vials at 40° C. and 75% r.H. and then tested for stability by measuring the purity of Fesoterodine. The initial purity of the Fesoterodine in the blends was 99.7%.

[5] = tested on: patients with overactive bladder; test: Efficacy trial of Fesoterodine fumarate vs tolterodine ER and placebo; type: in vivo, human; details: FAS with LOCF; for Number of micturitions per 24 hours, Treatment difference vs Pbo / Urge incontinence per 24 hours, Treatment difference vs Pbo: ANCOVA; for Treatment response (responder rate): end of treatment
Method: The Fesoterodine formulations were as follows: […]
The trial was conducted in 19 countries. A total of 1135 subjects were randomized and 1103 subjects were included in the full analysis set: 279 in the placebo treatment group, 265 in the 4 mg Fesoterodine treatment group, 276 in the 8 mg Fesoterodine treatment group, and 283 in the 4 mg tolterodine ER treatment group. The mean age of subjects was 57 years. A total of 81% were female and 97% were white. There were no notable differences among the treatment groups with respect to gender, race, age, or weight/BMI.

[6] = tested on: patients with overactive bladder; test: Treatment-emergent adverse events in the efficacy trial (safety set)
Method: A randomized, double-blind, double dummy, placebo and active-controlled trial in adult male and female human subjects was conducted.
For the safety set, the number of patients were: 283 in the placebo treatment group, 272 in the Fesoterodine 4 mg/day treatment group, and 287 in the Fesoterodine 8 mg/day treatment group.

[7] = 4 mg/day, N = 272, listed as Feso
[8] = 8 mg/day, N = 287, listed as Feso

With `COc1c(N2C[C@@H]3CCCN[C@@H]3C2)c(F)cc2c(=O)c(C(=O)O)cn(C3CC3)c12` [moxifloxacin, reference compound] the “mean time-averaged QTcF increase” value ([1]; moxifloxacin 400 mg/day, after three days of treatment) was 8.6 ms and the “QTc outlier analyses vs placebo” value [1] was “a higher incidence of QTc outliers”.

With maltitol the “hydrolyzation products and total degradation products in tablets prepared with the granulates” value [2] was 1.1-1.7%.

For `CC(C)C(=O)Oc1ccc(CO)cc1[C@H](CCN(C(C)C)C(C)C)c1ccccc1` [Fesoterodine, 2-[(1R)-3-(diisopropylamino)-1-phenylpropyl]-4-(hydroxymethyl)phenyl isobutyrate], the “% of Fesoterodine hydrogen fumarate remaining (purity)” value ([3]; 1 week) was 98.56%, the “% of Fesoterodine hydrogen fumarate remaining (purity)” value ([3]; 2 weeks) was 97.67% and the “% of Fesoterodine hydrogen fumarate remaining (purity)” value ([3]; 4 weeks) was 94.32%. The “% of Fesoterodine hydrogen fumarate remaining (purity)” value ([3]; 12 weeks) was “about 50%”, the “% of Fesoterodine hydrogen fumarate remaining (purity)” value ([3]; 12 weeks, listed as Fesoterodine (pure)) was 50.39% and the “% of Fesoterodine hydrogen fumarate remaining (purity)” value ([3]; Initial) was 98.96%. The “Purity of Fesoterodine in blends” value ([4]; closed vial 25° C., 60% r.H., 3 months) was 99.7%, the “Purity of Fesoterodine in blends” value ([4]; closed vial 25° C., 60% r.H., 6 weeks) was 99.6% and the “Purity of Fesoterodine in blends” value ([4]; closed vial 40° C., 75% r.H., 6 weeks) was 99.3%. For the same compound, the “Purity of Fesoterodine in blends” value ([4]; open vial 40° C., 75% r.H., 3 months) was 53.1%, the “Purity of Fesoterodine in blends” value ([4]; open vial 40° C., 75% r.H., 6 weeks) was 96.3% and the “mean time-averaged QTcF decrease” value ([1]; 4 mg Fesoterodine per day, after three days of treatment) was 4.6 ms. For the same compound, the “mean time-averaged QTcF decrease” value ([1]; 28 mg Fesoterodine per day, after three days of treatment) was 5.0 ms, the “effect on myocardial repolarization (QTcF and QTcI vs placebo)” value ([1]; multiple 4 mg and 28 mg doses) was “did not exert an effect on myocardial repolarization” and the “QTc outlier analyses vs placebo” value [1] was “no differences between the Fesoterodine treatment groups and placebo”. For the same compound, the “Number of micturitions per 24 hours, Treatment difference vs Pbo” value ([5]; 4 mg vs Pbo) was −0.81, the “Urge incontinence per 24 hours, Treatment difference vs Pbo” value ([5]; 4 mg vs Pbo) was −0.81 and the “Number of micturitions per 24 hours, ANCOVA Endpoint LS Mean” value ([5]; 4 mg) was −1.76. The “Urge incontinence per 24 hours, ANCOVA Endpoint LS Mean” value ([5]; 4 mg) was −1.95, the “Number of micturitions per 24 hours, change from baseline at end of treatment, Mean (SD)” value ([5]; 4 mg/day) was −1.74 (2.66) and the “Urge incontinence per 24 hours, change from baseline at end of treatment, Mean (SD)” value (“Urge incontinence per 24 hours, change … (SD)” below) ([5]; 4 mg/day) was −1.44 (2.75). For the same compound, the “Treatment response (responder rate)” value ([5]; 4 mg/day) was 75%, the “Number of micturitions per 24 hours, Treatment difference vs Pbo” value ([5]; 8 mg vs Pbo) was −0.93 and the “Urge incontinence per 24 hours, Treatment difference vs Pbo” value ([5]; 8 mg vs Pbo) was −1.08. The “Number of micturitions per 24 hours, ANCOVA Endpoint LS Mean” value ([5]; 8 mg) was −1.88, the “Urge incontinence per 24 hours, ANCOVA Endpoint LS Mean” value ([5]; 8 mg) was −2.22 and the “Number of micturitions per 24 hours, change from baseline at end of treatment, Mean (SD)” value ([5]; 8 mg/day) was −1.94 (3.15). For the same compound, the “Urge incontinence per 24 hours, change … (SD)” value ([5]; 8 mg/day) was −1.81 (2.35), the “Treatment response (responder rate)” value ([5]; 8 mg/day) was 79% and the “incidence of blurred vision” value ([6]; 4 mg/day) was 1%. The “incidence of dry throat” value ([6]; 4 mg/day) was 1%, the “incidence of urinary retention” value ([6]; 4 mg/day) was 1% and the “Any adverse event, subjects (%)” value ([6]; 4 mg/day, N = 272) was 50%. The “Any adverse event, subjects n” value ([6]; 4 mg/day, N = 272) was 135, the “Constipation, subjects (%)” value ([6]; 4 mg/day, N = 272) was 3% and the “Constipation, subjects n” value ([6]; 4 mg/day, N = 272) was 9. The “Fatigue, subjects (%)” value ([6]; 4 mg/day, N = 272) was “(<1) %”, the “Fatigue, subjects n” value ([6]; 4 mg/day, N = 272) was 1 and the “Headache, subjects (%)” value ([6]; 4 mg/day, N = 272) was “(4) %”. The “Headache, subjects n” value ([6]; 4 mg/day, N = 272) was 12, the “Keratoconjunctivitis sicca, subjects (%)” value ([6]; 4 mg/day, N = 272) was 2% and the “Keratoconjunctivitis sicca, subjects n” value ([6]; 4 mg/day, N = 272) was 6. For the same compound, the “Mouth dry, subjects (%)” value ([6]; 4 mg/day, N = 272) was 22%, the “Mouth dry, subjects n” value ([6]; 4 mg/day, N = 272) was 59 and the “Nasopharyngitis, subjects (%)” value ([6]; 4 mg/day, N = 272) was “(3) %”. The “Nasopharyngitis, subjects n” value ([6]; 4 mg/day, N = 272) was 8, the “Urinary tract infection, subjects (%)” value ([6]; 4 mg/day, N = 272) was “(3) %” and the “Urinary tract infection, subjects n” value ([6]; 4 mg/day, N = 272) was 8. The “Any adverse event, subjects (%)” value [6, 7] was “(50) %”, the “Constipation, subjects (%)” value [6, 7] was “(3) %” and the “Keratoconjunctivitis sicca, subjects (%)” value [6, 7] was “(2) %”. The “Mouth dry, subjects (%)” value [6, 7] was “(22) %”, the “incidence of blurred vision” value ([6]; 8 mg/day) was 1% and the “incidence of dry throat” value ([6]; 8 mg/day) was 3%. For the same compound, the “incidence of urinary retention” value ([6]; 8 mg/day) was 1%, the “Any adverse event, subjects (%)” value ([6]; 8 mg/day, N = 287) was 58% and the “Any adverse event, subjects n” value ([6]; 8 mg/day, N = 287) was 167. The “Constipation, subjects (%)” value ([6]; 8 mg/day, N = 287) was 5%, the “Constipation, subjects n” value ([6]; 8 mg/day, N = 287) was 13 and the “Fatigue, subjects (%)” value ([6]; 8 mg/day, N = 287) was “(<1) %”. The “Fatigue, subjects n” value ([6]; 8 mg/day, N = 287) was 1, the “Headache, subjects (%)” value ([6]; 8 mg/day, N = 287) was “(2) %” and the “Headache, subjects n” value ([6]; 8 mg/day, N = 287) was 7. For the same compound, the “Keratoconjunctivitis sicca, subjects (%)” value ([6]; 8 mg/day, N = 287) was 4%, the “Keratoconjunctivitis sicca, subjects n” value ([6]; 8 mg/day, N = 287) was 12 and the “Mouth dry, subjects (%)” value ([6]; 8 mg/day, N = 287) was 34%. The “Mouth dry, subjects n” value ([6]; 8 mg/day, N = 287) was 97, the “Nasopharyngitis, subjects (%)” value ([6]; 8 mg/day, N = 287) was “(2) %” and the “Nasopharyngitis, subjects n” value ([6]; 8 mg/day, N = 287) was 5. The “Urinary tract infection, subjects (%)” value ([6]; 8 mg/day, N = 287) was “(3) %”, the “Urinary tract infection, subjects n” value ([6]; 8 mg/day, N = 287) was 9 and the “Any adverse event, subjects (%)” value [6, 8] was “(58) %”. The “Constipation, subjects (%)” value [6, 8] was “(5) %”, the “Keratoconjunctivitis sicca, subjects (%)” value [6, 8] was “(4) %” and the “Mouth dry, subjects (%)” value [6, 8] was “(34) %”.

In the case of `Cc1ccc(O)c([C@H](CCN(C(C)C)C(C)C)c2ccccc2)c1` [Tolt, tolterodine, reference compound], the “Number of micturitions per 24 hours, Treatment difference vs Pbo” value ([5]; 4 mg vs Pbo) is reported as −0.78, the “Urge incontinence per 24 hours, Treatment difference vs Pbo” value ([5]; 4 mg vs Pbo) is reported as −0.60 and the “Number of micturitions per 24 hours, ANCOVA Endpoint LS Mean” value ([5]; 4 mg) is reported as −1.73. For the same compound, the “Urge incontinence per 24 hours, ANCOVA Endpoint LS Mean” value ([5]; 4 mg) was −1.74, the “Number of micturitions per 24 hours, change from baseline at end of treatment, Mean (SD)” value ([5]; 4 mg/day) was −1.69 (2.42) and the “Urge incontinence per 24 hours, change … (SD)” value ([5]; 4 mg/day) was −1.43 (2.20). For the same compound, the “Treatment response (responder rate)” value ([5]; 4 mg/day) was 72%.
